A word on the MIC: it is the smallest concentration in the dilution series that meets the test's criterion for growth inhibition.

Values after ≈ are worked out from the molar mass of the structure shown.

Test [1] deals with C. albicans. Nature of the test: ergosterol quantitation. In kind it is cell-based, Candida albicans. Particulars: 1× MIC vs no-drug control. The method, then: (§1) Treated cultures were incubated at 30°C with shaking for 18 h for C. albicans and A. fumigatus and for 32 h for C. neoformans. Cell membrane ergosterol was then extracted and quantified as described previously ([48]).

Test [2] concerns A. fumigatus. Nature of the test: ROS accumulation, DCFDA. In kind it is cell-based, Aspergillus fumigatus. The method, then: (§2) All cultures were incubated for 6 h and then labeled with 20 µM DCFDA in PBS for 30 min. Labeled cultures were transferred into a microplate, and fluorescence intensity was measured using a CLARIOstar plate reader (BMG Labtech).
Test [3] has as its system 12 pathogenic bacterial species. Nature of the test: antibacterial MIC, summary of 12 pathogenic bacterial species. The format is cell-based. The source says:
(§3) […]; Table S3). […]. […] […].

Test [4] relates to 38 species of clinically relevant fungi. Put plainly: MIC summary across 38 species of clinically relevant fungi. In kind it is cell-based. As to conditions: 38 fungal species; for MIC: read-out: GM MIC. The source says: […]; Table S3). […]. […] […]. […] […].
The test system of test [5] is C. neoformans. Put plainly: membrane depolarization, diS-C3(3). The format is cell-based, Cryptococcus neoformans. Particulars: diS-C3(3) emission maximum. The method, then:
(§4) Membrane depolarization was determined using potential-sensitive fluorophore diS-C3(3) (Sigma), as described previously ([51]). Yeast cells and A. fumigatus conidia were treated as described above, then washed with citrate phosphate buffer and labeled with 20 nM diS-C3(3) at a final concentration of 10^6 cells/mL for yeasts and 10^4 conidia/mL for Aspergillus. Cells were transferred to a microplate (Invitrogen), then emission spectra between 560 and 585 nm (λexcitation = 531 nm) were obtained every 12 min for 1 h using a CLARIOstar plate reader (BMG Labtech). The emission λmax was determined at each timepoint.

Test [6] concerns A. fumigatus. Put plainly: membrane fluidity, TMA-DPH anisotropy. In kind it is cell-based, Aspergillus fumigatus. The method, then: (§5) Candida albicans cells were incubated for 6 h, and C. neoformans cells were incubated for 9 h at 30°C, washed, then labeled with 2 µM TMA-DPH in PBS for 10 min. […] Mycelia were fixed, and protoplasts were prepared as described previously ([50]). Protoplasts were washed twice and labeled with 2 µM TMA-DPH in PBS for 30 min. For all labeled cultures, parallel and perpendicular fluorescence intensities were measured at 440 nm in a CLARIOstar plate reader (BMG Labtech), and anisotropy was calculated.

Test [7] concerns C. neoformans. Put plainly: ergosterol quantitation. The format is cell-based, Cryptococcus neoformans. Particulars: 1× MIC vs no-drug control. The method, then:
as §1

In test [8] the test system is C. neoformans. Nature of the test: lipid peroxidation, TBARS assay (MDA). In kind it is cell-based, Cryptococcus neoformans. The method, then: (§6) Cultures were incubated overnight, pelleted, and resuspended in 1 mL ice-cold PBS. Malondialdehyde (MDA) was extracted and quantified using a TBARS assay kit (Cayman Chemical #700870) according to the manufacturer’s instructions. MDA was normalized to total protein content in cell lysates.

Test [9] has as its system C. neoformans. Nature of the test: membrane permeabilization, nucleic acid leakage. In kind it is cell-based, Cryptococcus neoformans. The method, then:
(§7) Membrane permeabilization was determined by measuring the leakage of nucleic acid into the supernatant ([19]). […] Suspensions were incubated at 30°C with shaking at 200 rpm for 6 h, then passed through a 0.45 µm syringe filter. The A260 of each filtrate was measured with a DS-11 FX +benchtop spectrophotometer (DeNovix).

The test system of test [10] is C. albicans. Nature of the test: membrane fluidity, TMA-DPH anisotropy. The format is cell-based, Candida albicans. The method, then: as §5
For test [11], the system named is Staphylococcus aureus. Put plainly: antibacterial MIC. The format is cell-based.
From the text: as §3

Test [12] relates to Streptococcus pneumoniae. Put plainly: antibacterial MIC. The format is cell-based.
From the text: as §3

Test [13] has as its system Pseudomonas aeruginosa. Put plainly: antibacterial MIC. In kind it is cell-based.
From the text: as §3

The test system of test [14] is Streptococcus pyogenes. Nature of the test: antibacterial MIC. The format is cell-based.
From the text: as §3

The test system of test [15] is Proteus vulgaris. Nature of the test: antibacterial MIC. The format is cell-based.
From the text: as §3

Test [16] has as its system Escherichia coli. Nature of the test: antibacterial MIC. The format is cell-based.
From the text: as §3

In test [17] the test system is Enterococcus faecalis. Nature of the test: antibacterial MIC. In kind it is cell-based.
From the text: as §3

Test [18] deals with Salmonella Typhimurium. Put plainly: antibacterial MIC. In kind it is cell-based. Particulars: Salmonella enterica.
From the text: as §3

Test [19] relates to Acinetobacter baumanii. Put plainly: antibacterial MIC. The format is cell-based. Particulars: Acinetobacter baumannii.
From the text: as §3

Test [20] concerns Cryptococcus neoformans. Nature of the test: time-kill assay. In kind it is cell-based. Particulars: 1× MIC, C. neoformans. The method, then: (§8) Cultures were incubated at 37°C with shaking at 200 rpm. Aliquots were withdrawn at 12, 24, 36, and 48 h post-treatment for both species, and additionally at 60 and 72 h for C. neoformans, then back-plated onto SDA. Viable cell counts were obtained after 48 h.

The test system of test [21] is Candida albicans. Put plainly: time-kill assay. The format is cell-based. Particulars: 2× MIC, C. albicans. The method, then: as §8
Test [22] concerns C. albicans. Nature of the test: membrane depolarization, diS-C3(3). In kind it is cell-based, Candida albicans. As to conditions: diS-C3(3) emission maximum. The method, then:
as §4

Test [23] concerns C. albicans. Put plainly: ROS accumulation, DCFDA. The format is cell-based, Candida albicans. The method, then: as §2
Test [24] has as its system A. fumigatus infection. Put plainly: Galleria mellonella survival assay. The format is in vivo. The method, then: (§9) Galleria mellonella larvae were reared and prepared as described previously ([53]). Larvae (n = 12 per treatment) were each inoculated with 10^5 spores or cells of A. fumigatus, C. albicans, or C. neoformans in 10 µL of PBS. […] Treated larvae were incubated at 37°C, and mortality was evaluated every day for 10 days.

The test system of test [25] is C. neoformans infection. Put plainly: Galleria mellonella survival assay. The format is in vivo. The method, then:
as §9

Test [26] deals with C. albicans infection. Put plainly: Galleria mellonella survival assay. The format is in vivo. The method, then: as §9
Test [27] relates to TNF-α. Details: method as in PMID 23610597. Particulars: cited from earlier work.
Test [28] relates to A. fumigatus. Nature of the test: ergosterol quantitation. In kind it is cell-based, Aspergillus fumigatus. As to conditions: 1× MIC vs no-drug control. The method, then:
as §1

For test [29], the system named is C. albicans. Put plainly: lipid peroxidation, TBARS assay (MDA). The format is cell-based, Candida albicans. The method, then:
as §6

Test [30] relates to C. neoformans. Put plainly: ROS accumulation, DCFDA. In kind it is cell-based, Cryptococcus neoformans. The method, then:
as §2

For test [31], the system named is A. fumigatus. Nature of the test: lipid peroxidation, TBARS assay (MDA). In kind it is cell-based, Aspergillus fumigatus. The method, then:
as §6

Test [32] concerns C. albicans. Nature of the test: membrane permeabilization, nucleic acid leakage. In kind it is cell-based, Candida albicans. The method, then:
as §7

For `CCCCCCCCCCn1cc[n+](CC(O)(P(=O)(O)O)P(=O)(O)O)c1` [10-ZOL, Decyl-zoledronate], the membrane ergosterol content result in test [1], in [7] and in [28] was “significant depletion of membrane ergosterol” in each case. The “concentration at which ROS (DCFDA fluorescence) increase became significant” value in [2], in [23] and in test [30] was 2 × MIC throughout. Also, the antibacterial activity entry in test [3] was “limited or no antibacterial activity”. Further, the “overall MIC range” value in test [4] is 0.5 to 8 µg/mL. Further, the MIC is 1.39 ± 1.6 µg/mL in test [4]; 16 µg/mL in [11]; 16 µg/mL in test [12]; greater than 16 µg/mL in [13]; 16 µg/mL in test [14]; greater than 16 µg/mL in [15]. Moreover, the MIC in [16] was 16 µg/mL; in test [17], 16 µg/mL; in test [18], greater than 16 µg/mL; in [19] it was greater than 16 µg/mL. The membrane depolarization result in test [5] and in test [22] was “dose-dependent depolarization effect” in each case. In addition, the “concentration from which anisotropy differs significantly from no-drug control” value in [6] was 2 × MIC; in test [10], 0.5 × MIC. In addition, the “concentration at which lipid peroxidation increase became significant” value in test [8] was found to be 1 × MIC; in test [29] it was 1 × MIC; in [31] it was 2 × MIC. The “concentration giving significant increase in leaked nucleic acid” value in test [9] and in [32] was no less than 1 × MIC throughout. In addition, the “time at which viable cell count is significantly decreased from starting inoculum” value in [20] is given as 24 h; in test [21] it was 12 h. For the same compound, the “survival compared with […] AMB” value was “no significant difference in survival” in test [24] (64 µg/mL), “outperformed AMB” in test [25] (64 µg/mL) and “outperformed AMB” in test [26] (64 µg/mL). The “larval mortality vs no-drug control” value in test [24] (single infusion of 64 µg/mL), in test [25] (single infusion of 64 µg/mL) and in test [26] (single infusion of 64 µg/mL) was “significantly reduced mortality” in each case. In addition, the TNF-α release entry in test [27] was “stimulate the release of TNF-α”.

In the case of `O=P(O)(O)C(O)(Cn1ccnc1)P(=O)(O)O` [ZOL, zoledronate], the minimal inhibitory concentration (MIC) was 148 ± 176 µg/mL (≈ 544 µM) in [4]; 256 µg/mL (≈ 941 µM) in test [11]; greater than 256 µg/mL in test [12]; greater than 256 µg/mL in [13]; 256 µg/mL (≈ 941 µM) in [14]; 128 µg/mL (≈ 470 µM) in test [15]. For the same compound, the MIC was 256 µg/mL (≈ 941 µM) in test [16], 256 µg/mL (≈ 941 µM) in test [17], 256 µg/mL (≈ 941 µM) in test [18] and greater than 256 µg/mL in test [19].

The record behind these values is PMC12892976, “Alkylation-based optimization of antifungal FPPS inhibitors yields a potent, broad-spectrum lipophilic zoledronate derivative” (mBio, 2025).
